In brackets after ≈: the same amount, converted by molar mass.
Legend:
[1] = physchem; conditions: water
[2] = Chemical stability of compositions on storage (total impurities); format: physicochemical
Description: [No. 1 in FIG. 3b is isopropyl ((R)—((((R)-1-(6-amino-9H-purin-9-yl)propan-2-yl)oxy)methyl) (phenoxy)phosphoryl)-L-alaninate]

[3] = cited from earlier work
[4] = Syringeability/injectability with various wetting agents; format: physicochemical; conditions: 40% TAF/60% PLGA 5050, 125 mg/mL suspension, wetting agent in minimal amounts
Description: Suspending vehicles with various wetting agents were prepared. […] A formulation 40% TAF (free base, crystalline, and micronized) and 60% PLGA 5050 was used to obtain a 125 mg/mL suspension. These suspensions were evaluated for syringeability/injectability. […] Additionally, Tween 80 could accommodate sterilization via filtration.

## CC(C)OC(=O)[C@H](C)N[P@](=O)(CO[C@H](C)Cn1cnc2c(N)ncnc21)Oc1ccccc1 [Free base, (S)-isopropyl-2-(((S)—((((R)-1-(6-amino-9H-purin-9-yl)propan-2-yl)oxy)methyl)(phenoxy)phosphoryl)amino)propanoate]
[1]
  solubility: ~3500 µg/mL (≈ 7.35 mM)
[2]; 40° C./75% RH closed for 2 weeks
  total impurities: 2.1%
[2]; initial
  total impurities observed initially: 2.1%

## Poly(D,L-lactide) [PDLLA]
[3]
  degradation time in vivo: 12-18 months

## polysorbate 80 [Tween 80]
[4]
  syringeability/injectability through a 20 G needle: improved syringeability/injectability
